{"source": "patent US9993449B2", "about": "“(S)-3-amino-4-(difluoromethylenyl)cyclopent-1-ene-1-carboxylic acid, and related compounds as GABA aminotransferase inactivators for the treatment of epilepsy, addiction and hepatocellular carcinoma” (NORTHWESTERN UNIVERSITY, priority 2015, dated 2018)", "key": {"[1]": {"target": "aspartate aminotransferase (Asp-AT)", "assay": "Inhibition of aspartate aminotransferase", "assay_type": "biochemical", "conditions": "reversible inhibition", "protocol": "Inhibition of Aspartate Aminotransferase by 1. Microtiter plate wells were loaded with 90 μL of an assay mixture containing 100 mM potassium phosphate at pH 7.4, 5.55 mM α-ketoglutarate, 1.11 mM NADH, 5.55 mM L-aspartate, 11.1 units of malic dehydrogenase, and various concentrations of 1. After incubation of the mixture at room temperature for a few min, 10 μL of Asp-AT (3.0 units/mL in 100 mM potassium phosphate at pH 7.4) was added. The plate was shaken at room temperature for 1 min, and the absorbance was measured at 340 nm every 6 s for 90 min. All assays were performed in duplicate (FIG. 4)."}, "CYP3A": {"system": "CYP3A", "assay": "CYP3A inhibition (HLM, midazolam and testosterone substrates)", "assay_type": "in vitro ADME, human", "conditions": "10 μM, 10 min at 37° C.", "protocol": "(§1) Inhibition of Microsomal Cytochromes P450. The experiments were performed by Eurofins Panlabs (Redmond, Wash. 98052, USA). CYP1A inhibition (HLM, phenacetin substrate), CYP2B6 inhibition (HLM, bupropion substrate), CYP2C8 inhibition (HLM, paclitaxel substrate), CYP2C9 inhibition (HLM, diclofenac substrate), CYP2C19 inhibition (HLM, omeprazole substrate), CYP2D6 inhibition (HLM, dextromethorphan substrate), and CYP3A inhibition (HLM, midazolam and testosterone substrates) were tested. The test concentration was 10 μM. The incubation time was 10 min at 37° C. The detection method was by HPLC-MS/MS. The experiments were duplicated, and the % inhibition of the control values was averaged (FIG. 8)."}, "[2]": {"target": "alanine aminotransferase (Ala-AT)", "assay": "Inhibition of alanine aminotransferase", "assay_type": "biochemical", "conditions": "reversible inhibition", "excerpt": "Inhibition of Alanine Aminotransferase by 1. The assay was identical to that with aspartate aminotransferase except L-alanine was used as the substrate and lactate dehydrogenase was the enzyme (FIG. 5)."}, "[3]": {"system": "glucose metabolism in the hippocampus", "assay": "MicroPET imaging with 18FDG: cocaine-induced increases in glucose metabolism in freely moving rats", "assay_type": "in vivo, rat", "conditions": "18FDG microPET, statistical parametric map, p<0.00001, Hydrochloride", "excerpt": "In addition to labeled raclopride studies, [^18F]-2′-fluoro-2′-deoxy-D-glucose (^18FDG) and microPET were also used to examine the regional effects of 1 on cocaine-induced increases in glucose metabolism. ^18FDG is an analogue of glucose that gets taken up into neurons (or any cells in the human body) just like glucose. However, after ^18FDG is phosphorylated, the corresponding 6′-phosphate cannot be further metabolized in the glycolytic pathway and remains in cells. Consequently, human PET studies have used ^18 FDG for decades to map the brain. […] When a human or a rat receives a psychostimulant like cocaine, dopamine floods the synapse, causing post-synaptic neurons to fire frantically. Because this neuronal firing requires energy in the form of glucose, the result is that brain glucose metabolism increases in specific brain regions. The effect of 1 on cocaine-induced increases in glucose metabolism in freely moving rats was determined using statistical parametric mapping, in which all of the images from the cocaine-only animals were added together and then compared to the images obtained from the same animals that received 1 and cocaine. A statistical threshold (p<0.00001) was set, and a statistical parametric map, an image showing all the pixels that were statistically different between the two conditions, was generated and then overlaid on an MRI of the rat brain (FIG. 11). […]"}, "CYP1A": {"target": "T1, CYP1A (Homo sapiens, UniProt P05177)", "T1 construct": "tissue Eurofins Panlabs; host or cells: human liver microsomes", "T1 sequence (P05177 1-516)": "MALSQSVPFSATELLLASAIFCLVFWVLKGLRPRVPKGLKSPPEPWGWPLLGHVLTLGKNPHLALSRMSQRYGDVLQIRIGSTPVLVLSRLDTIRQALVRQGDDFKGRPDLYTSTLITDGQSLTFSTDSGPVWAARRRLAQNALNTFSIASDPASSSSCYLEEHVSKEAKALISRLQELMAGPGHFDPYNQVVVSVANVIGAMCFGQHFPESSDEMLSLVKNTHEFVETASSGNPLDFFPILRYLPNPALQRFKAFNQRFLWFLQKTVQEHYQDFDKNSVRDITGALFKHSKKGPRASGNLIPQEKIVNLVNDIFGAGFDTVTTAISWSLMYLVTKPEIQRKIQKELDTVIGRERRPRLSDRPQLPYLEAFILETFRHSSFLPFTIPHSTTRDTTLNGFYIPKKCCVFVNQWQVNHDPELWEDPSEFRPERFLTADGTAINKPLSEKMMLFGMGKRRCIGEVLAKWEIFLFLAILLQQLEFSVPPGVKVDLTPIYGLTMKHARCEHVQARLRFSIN", "assay": "CYP1A inhibition (HLM, phenacetin substrate)", "assay_type": "in vitro ADME", "conditions": "10 μM, 10 min at 37° C.", "protocol": "as §1"}, "CYP2C8": {"target": "T2, CYP2C8 (Homo sapiens, UniProt P10632)", "T2 construct": "tissue Eurofins Panlabs; host or cells: human liver microsomes", "T2 sequence (P10632 1-490)": "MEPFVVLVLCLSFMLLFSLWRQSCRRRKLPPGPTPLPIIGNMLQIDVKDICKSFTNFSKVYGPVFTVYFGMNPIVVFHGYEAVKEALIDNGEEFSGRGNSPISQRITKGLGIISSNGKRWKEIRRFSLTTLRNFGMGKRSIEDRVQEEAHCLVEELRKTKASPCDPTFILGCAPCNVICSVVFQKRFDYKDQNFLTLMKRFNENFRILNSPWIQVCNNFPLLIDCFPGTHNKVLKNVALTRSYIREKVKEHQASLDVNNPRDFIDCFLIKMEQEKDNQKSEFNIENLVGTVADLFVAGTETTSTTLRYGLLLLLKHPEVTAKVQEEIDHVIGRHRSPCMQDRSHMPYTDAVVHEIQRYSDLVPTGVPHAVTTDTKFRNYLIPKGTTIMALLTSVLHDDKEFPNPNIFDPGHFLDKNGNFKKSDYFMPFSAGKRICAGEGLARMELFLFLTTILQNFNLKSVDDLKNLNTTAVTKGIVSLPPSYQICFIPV", "assay": "CYP2C8 inhibition (HLM, paclitaxel substrate)", "assay_type": "in vitro ADME", "conditions": "10 μM, 10 min at 37° C.", "protocol": "as §1"}, "CYP2C9": {"target": "T3, CYP2C9 (Homo sapiens, UniProt P11712)", "T3 construct": "tissue Eurofins Panlabs; host or cells: human liver microsomes", "T3 sequence (P11712 whole entry)": "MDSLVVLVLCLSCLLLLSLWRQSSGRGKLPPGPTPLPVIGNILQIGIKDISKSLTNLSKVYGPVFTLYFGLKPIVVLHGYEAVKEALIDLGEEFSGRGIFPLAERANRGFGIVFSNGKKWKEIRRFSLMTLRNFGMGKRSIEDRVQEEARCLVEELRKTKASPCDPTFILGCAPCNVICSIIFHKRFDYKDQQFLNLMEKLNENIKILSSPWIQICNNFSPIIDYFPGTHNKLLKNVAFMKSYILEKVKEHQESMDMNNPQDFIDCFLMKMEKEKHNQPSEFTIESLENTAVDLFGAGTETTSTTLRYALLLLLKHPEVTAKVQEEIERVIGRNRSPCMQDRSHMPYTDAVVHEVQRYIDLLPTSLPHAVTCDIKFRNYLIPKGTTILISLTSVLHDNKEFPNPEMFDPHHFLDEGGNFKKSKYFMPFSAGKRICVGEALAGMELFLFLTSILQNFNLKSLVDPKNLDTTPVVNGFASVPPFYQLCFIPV", "assay": "CYP2C9 inhibition (HLM, diclofenac substrate)", "assay_type": "in vitro ADME", "conditions": "10 μM, 10 min at 37° C.", "protocol": "as §1"}}, "note": "Entries after “also recorded” stand apart in the source; their conditions may differ. Where a name gives a salt, the structure may show the parent alone."}
{"smiles": "N[C@H]1C=C(C(=O)O)CC1=C(F)F", "note": "[Compound 1, (S)-3-Amino-4-(difluoromethylenyl)cyclopent-1-ene-1-carboxylic acid Hydrochloride]", "values": [{"measurement": "IC50", "setting": "[1]", "value": "> 4", "unit": "mM"}, {"measurement": "inhibition or induction of CYP 3A", "setting": "CYP3A", "value": "does not inhibit or induce"}, {"measurement": "IC50", "setting": "[2]", "value": "> 4", "unit": "mM"}, {"measurement": "cocaine-induced activation (metabolic demand) in the hippocampus", "setting": "[3]", "value": "attenuated; also recorded: all gone"}, {"measurement": "inhibition or induction of CYP 1A", "setting": "CYP1A", "value": "does not inhibit or induce"}, {"measurement": "inhibition or induction of CYP 2C8", "setting": "CYP2C8", "value": "does not inhibit or induce"}, {"measurement": "inhibition or induction of CYP 2C9", "setting": "CYP2C9", "value": "does not inhibit or induce"}]}
